Results: patent publication US20240400546A1, “COMPOUNDS AND USES THEREOF” (JANSSEN PHARMACEUTICA NV, priority 2016, published 2024)

What was measured:
Assay type in all cases: cell-based
SCD5 = molecular target: T1, SCD5 (Homo sapiens, UniProt Q86SK9); test: Growth inhibition of humanized yeast expressing SCD5 as sole desaturase; conditions: for half-maximal inhibitory concentration (IC50), SCD5 humanized strain: FIG. 6
T1 construct: host or cells: S. cerevisiae ole1Δ strain, plasmid pRS316 with TDH3 promoter and CYC1 terminator
T1 sequence (Q86SK9 1-330): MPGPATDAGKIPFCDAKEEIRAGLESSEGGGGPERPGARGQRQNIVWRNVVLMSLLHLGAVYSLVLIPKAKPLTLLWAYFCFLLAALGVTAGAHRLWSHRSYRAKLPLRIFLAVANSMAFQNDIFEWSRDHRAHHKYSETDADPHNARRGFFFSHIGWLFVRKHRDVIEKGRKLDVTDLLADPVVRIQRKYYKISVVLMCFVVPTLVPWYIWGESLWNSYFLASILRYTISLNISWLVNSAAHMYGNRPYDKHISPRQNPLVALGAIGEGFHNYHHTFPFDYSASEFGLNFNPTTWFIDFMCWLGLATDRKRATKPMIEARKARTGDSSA
Method: (§1) Strain ole1Δ (yeast ole1 deletion mutant) was constructed by deleting OLE1 with NAT-MX6 in BY4741, amplifying the deletion cassette from the genomic DNA of the resulting strain with primers flanking the ORF by 1000 bp upstream and downstream, transforming the resulting deletion cassette into W303 pdr1Δ pdr3Δ, and plating transformants on YPD media containing G418 (200 μg/mL) and nourseothricin (100 μg/mL) with 0.01% TWEEN®-20 and 0.5 mM oleic and palmitoleic acids.
(§2) The coding sequence of yeast OLE1 was also cloned into this plasmid). These clones were then transformed into the ole1Δ strain and plated on CSM-Ura media (CSM lacking uracil) with 2% glucose (w/v) and independent colonies were isolated and amplified.
(§3) All compound profiling experiments were performed using the same basic protocol. Different genetic backgrounds (e.g., gene deletions) or conditions (e.g., addition of oleic and palmitoleic acid) were replaced as indicated below.
(§4) Yeast were cultured using standard techniques in complete synthetic media (CSM) and yeast nitrogen base supplemented with 2% (w/v) carbon source (glucose, raffinose, or galactose) to regulate the expression of the toxic disease protein. An initial starter culture was inoculated in 3 mL CSM-Glucose media and incubated overnight in a 30° C. shaker incubator (225 rpm). Saturated morning cultures were then diluted 1:20 in fresh CSM-Raffinose media and grown for 6 h to an OD600 (optical density) of ˜0.4-0.8 at 30° C. with shaking.
(§5) Compound administration was performed in two separate steps. First, 15 μL of CSM-Galactose (induces expression of toxic protein) was dispensed into clear 384 well assay plates using a MULTIDROP™ Combi reagent dispenser. […] The cultures described above were then diluted to a 2× concentration (0.03 and 0.08 for alpha-synuclein and ApoE, final OD600 of 0.015 and 0.04) in CSM-Galactose. For wild-type and Ole1/SCD1/SCD5 plasmid-containing strains, the 2× cell density was 0.02. […] For 96-well assays (FIGS. 1A and 1B), compound dilutions in DMSO were generated in 96 well plates and 1 μL was manually pipetted into 96 well clear bottom assay plates.
(§6) For experiments using a plasmid-borne copy of Ole1, SCD1, or SCD5 (FIGS. 3B, 6, and 7), media lacking uracil (SX-Ura, where X is glucose, raffinose, or galactose), was used for all steps of the compound profiling protocol to ensure its maintenance throughout the assay.
(§7) After yeast delivery, assay plates were incubated under humidified conditions at 30° C. for 24 to 40 h. ApoE4 rescue experiments were stopped at 24 h, aSyn experiments at 40 h, Ole1 at 24 h, and SCD1/SCD5 at 40 h. The growth of yeast was monitored by reading the OD600 of each well using a microplate reader (Perkin Elmer EnVision™).

SCD1 = molecular target: T2, SCD1 (Homo sapiens, UniProt O00767); test: Growth inhibition of humanized yeast expressing SCD1 as sole desaturase; conditions: for half-maximal inhibitory concentration (IC50), SCD1 humanized strain: FIG. 6
T2 construct: host or cells: S. cerevisiae ole1Δ strain, plasmid pRS316 with TDH3 promoter and CYC1 terminator
T2 sequence (O00767 1-359): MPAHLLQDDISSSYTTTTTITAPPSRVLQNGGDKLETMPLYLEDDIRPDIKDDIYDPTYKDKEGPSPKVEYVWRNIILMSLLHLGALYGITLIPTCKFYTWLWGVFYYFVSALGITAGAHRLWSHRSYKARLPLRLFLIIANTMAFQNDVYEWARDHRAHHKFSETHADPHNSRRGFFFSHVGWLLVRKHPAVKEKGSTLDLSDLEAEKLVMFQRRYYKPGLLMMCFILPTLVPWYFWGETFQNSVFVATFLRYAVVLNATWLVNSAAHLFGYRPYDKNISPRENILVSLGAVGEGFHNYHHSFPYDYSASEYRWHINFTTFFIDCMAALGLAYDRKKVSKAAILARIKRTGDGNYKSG
In short: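 ole1Δ yeast (W303 pdr1Δ pdr3Δ background) carried plasmid-borne human SCD1, human SCD5 or yeast Ole1 as the sole desaturase and were grown in uracil-lacking galactose medium in 384-well plates. Starting 2× density was OD600 0.02, with incubation at 30 °C. Growth was read as OD600 at 24 h for Ole1 and at 40 h for SCD1 and SCD5.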

Ole1 = molecular target: T3, Ole1 (Saccharomyces cerevisiae, UniProt P21147); test: Growth inhibition of yeast expressing Ole1 as sole desaturase; conditions: FIG. 6
T3 construct: expressed in transfected cells; host or cells: S. cerevisiae ole1Δ strain (W303 pdr1Δ pdr3Δ background), plasmid pRS316 with TDH3 promoter and CYC1 terminator
T3 sequence (P21147 1-510): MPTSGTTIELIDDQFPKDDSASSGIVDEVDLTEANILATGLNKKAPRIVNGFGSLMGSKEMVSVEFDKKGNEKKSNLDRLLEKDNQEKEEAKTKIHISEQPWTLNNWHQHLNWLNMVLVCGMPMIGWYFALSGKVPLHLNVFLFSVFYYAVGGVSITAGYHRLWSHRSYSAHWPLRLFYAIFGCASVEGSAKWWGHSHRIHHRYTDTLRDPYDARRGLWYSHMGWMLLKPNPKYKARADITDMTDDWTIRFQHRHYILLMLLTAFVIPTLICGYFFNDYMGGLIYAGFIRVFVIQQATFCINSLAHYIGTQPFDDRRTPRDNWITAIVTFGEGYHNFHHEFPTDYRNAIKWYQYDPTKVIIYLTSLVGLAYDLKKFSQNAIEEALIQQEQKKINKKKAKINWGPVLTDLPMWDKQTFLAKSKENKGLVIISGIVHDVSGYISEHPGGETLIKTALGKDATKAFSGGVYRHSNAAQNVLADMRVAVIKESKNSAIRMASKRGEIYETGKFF
Method: as §1, §2, §3, §4, §5, §6, §7

[1] = humanized yeast expressing human SCD5
[2] = humanized yeast expressing human SCD1
[3] = growth of humanized yeast strain expressing human SCD5
[4] = growth of humanized yeast strain expressing human SCD1

Compound: CC1=NN(C)C2C=C(c3noc([C@H]4CC[C@H](O)CC4)n3)C=CC12 (some centres unmarked) [Compound 526]
- IC50 (SCD5; [1]): > 45 µM
- IC50 (SCD1; [2]): > 45 µM

Compound: Cc1noc(N2CCC(c3nc(-c4ccc5c(C)nn(C)c5c4)no3)CC2)n1 [Compound 543]
- IC50 (SCD5; [1]): ≥ 45 µM
- IC50 (SCD1; [2]): > 45 µM

Compound: CC(C)n1ncc2ccc(-c3nc(C4CCN(C(=O)c5cccc(F)c5)CC4)no3)cc21 [Compound 547]
- IC50 (SCD5; [1]): 44.3 µM

Compound: Cc1nn(C)c2cc(-c3noc(C4CCN(C(=O)CNC(=O)c5ccc(Cl)cc5)CC4(F)F)n3)ccc12 (centres unmarked) [Compound 553]
- IC50 (SCD5; [1]): 0.885 µM
- IC50 (SCD1; [2]): 5.71 µM

Compound: CC(C)n1ncc2ccc(-c3noc(C4CCN(C(=O)c5ncco5)CC4)n3)cc21 [Compound 615]
- IC50 (SCD5; [3]): 1.88 µM
- IC50 (SCD1; [4]): 0.848 µM

Compound: Cc1cc(N2CCN(c3nc(-c4ccc5cnn(C(C)C)c5c4)no3)CC2)on1 [Compound 657]
- IC50 (SCD5; [3]): 9.11 µM
- IC50 (SCD1; [4]): > 45 µM

Compound: CC(C)n1ncc2ccc(N3CC4(CCN(C(=O)OC(C)(C)C)CC4)C3)cc21 [Compound 663]
- IC50 (SCD5; [3]): 0.01 µM
- IC50 (SCD1; [4]): > 45 µM

Compound: CC(C)(C)OC(=O)N1CCN(c2noc(-c3ccc4cnn(C5COC5)c4c3)n2)CC1 [Compound 750]
- IC50 (SCD5; humanized yeast strain, 40 h): 0.01 µM
- IC50 (SCD1; humanized yeast strain, 40 h): 3.25 µM

Compound: COCC(C)(C)n1ncc2ccc(-c3noc(C4CCN(C(=O)OC(C)(C)C)CC4)n3)cc21 [Compound 788]
- IC50 (SCD5; humanized yeast strain, 40 h): 6.22 µM
- IC50 (SCD1; humanized yeast strain, 40 h): > 45 µM

Compound: COC(=O)C1CCCN(c2noc(-c3ccc4cnn(C5COC5)c4c3)n2)CC1 (centres unmarked) [Compound 857]
- IC50 (SCD5; humanized yeast strain, 40 h): 26.8 µM
- IC50 (SCD1; humanized yeast strain, 40 h): > 45 µM

Compound: CC(=O)N1CC(n2cc3ccc(-c4nc(C5CCN(C(=O)OC(C)(C)C)CC5)no4)cc3n2)C1 [Compound 862]
- IC50 (SCD5; humanized yeast strain, 40 h): 0.01 µM
- IC50 (SCD1; humanized yeast strain, 40 h): 33.8 µM

Compound: CNC(=O)c1cccc(NC(=O)N2CCC(Oc3ccccc3Cl)CC2)c1 [Compound A939572, reference compound]
- Sensitivity of yeast expressing OLE1 to known SCD1/SCD5 inhibitors (Ole1): resistant
- half-maximal inhibitory concentration (IC50), SCD5 humanized strain (SCD5): low nanomolar
- half-maximal inhibitory concentration (IC50), SCD1 humanized strain (SCD1): low nanomolar

Compound: Cc1nnc(-c2ccc(N3CCC(Oc4ccccc4C(F)(F)F)CC3)nn2)s1 [MF-438, reference compound]
- Sensitivity of yeast expressing OLE1 to known SCD1/SCD5 inhibitors (Ole1): resistant
- half-maximal inhibitory concentration (IC50), SCD5 humanized strain (SCD5): low nanomolar
- half-maximal inhibitory concentration (IC50), SCD1 humanized strain (SCD1): low nanomolar

Compound: O=C(O)Cn1nnc(-c2cc(N3CCC(Oc4cc(F)ccc4Br)CC3)no2)n1 [MK-8245, reference compound]
- Sensitivity of yeast expressing OLE1 to known SCD1/SCD5 inhibitors (Ole1): resistant
- half-maximal inhibitory concentration (IC50), SCD5 humanized strain (SCD5): low nanomolar
